Laboratory results as given in PubChem BioAssay (NCI).
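Dose response: 5 concentrations. Exposure: 48 h. Format: 96-well plates. Endpoint: linear interpolation; highest concentration if not reached. TGI is the concentration that stops growth completely.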

How the values were obtained:
Test in all cases: inhibition of tumour cell growth, NCI panel, 48 h
A498 renal = test system: A498 renal
ACHN renal = test system: ACHN renal
BT-549 breast = test system: BT-549 breast
HOP-92 NSCLC = test system: HOP-92 NSCLC
M14 melanoma = test system: M14 melanoma
MDA-N = test system: MDA-N
NCI-H226 lung = test system: NCI-H226 lung
NCI-H23 lung = test system: NCI-H23 lung
NCI/ADR-RES ovarian = test system: NCI/ADR-RES ovarian
OVCAR-8 ovarian = test system: OVCAR-8 ovarian
SF-295 CNS = test system: SF-295 CNS
SF-539 CNS = test system: SF-539 CNS
SNB-19 CNS = test system: SNB-19 CNS
SNB-75 CNS = test system: SNB-75 CNS
SR leukemia = test system: SR leukemia
SW-620 colon = test system: SW-620 colon
T-47D breast = test system: T-47D breast
UO-31 renal = test system: UO-31 renal

SMILES	TGI (A498 renal) [µM]	TGI (ACHN renal) [µM]	TGI (BT-549 breast) [µM]	TGI (HOP-92 NSCLC) [µM]	TGI (M14 melanoma) [µM]	TGI (MDA-N) [µM]	TGI (NCI-H226 lung) [µM]	TGI (NCI-H23 lung) [µM]	TGI (NCI/ADR-RES ovarian) [µM]	TGI (OVCAR-8 ovarian) [µM]	TGI (SF-295 CNS) [µM]	TGI (SF-539 CNS) [µM]	TGI (SNB-19 CNS) [µM]	TGI (SNB-75 CNS) [µM]	TGI (SR leukemia) [µM]	TGI (SW-620 colon) [µM]	TGI (T-47D breast) [µM]	TGI (UO-31 renal) [µM]
Cc1ccc2c(c1)C(=O)/C(=C\c1ccccc1)CCS2(=O)=O	52.1	24.2	> 37.2	> 56.9	> 53.8	> 52.4	> 49.9	40.7	> 52.2	62.6	29.6	29.9	28.2	> 58	> 24.7	73.5	49.6	26.7
COc1ccc(NC(=O)CC(=O)N2N=C(N3CCCCC3)CC2c2ccccc2)cc1 (stereo not given)	> 100	> 100	> 100	> 100	> 100	> 100	> 100	> 100	> 100	> 100	> 100	> 100	> 100	> 100	> 100	> 100	> 100	> 100
O=C1/C(=C/c2cccnc2)C(n2cccc2)c2c(Br)sc(Br)c21 (stereo not given)	30.4	7.69	37.6	4.64	4.85	4.24	> 100	9.18	> 52	4.81	32	9.5	9.65	3.67	6.37	> 21.9	6.25	3.43
COc1cc2cc(C(=O)N3CC(CCl)c4c3cc([N+](=O)[O-])c3ccccc43)[nH]c2c(OC)c1OC (stereo not given)	97.6	> 100	> 100	> 100	> 100	> 100	> 100	> 100	> 78.3	> 100	97.7	> 100	> 100	> 100	19.1	> 100	> 100	> 100
CC(C)=CCC[C@@H](C)C1=C(O)C(Nc2ccccc2Br)=C(C)C(=O)C1=O	45.2	> 60.2	50.1	30.8	29.8	27.5	34.2	31.2	28.8	73	28.1	25.1	73	66.2	45	52.1	66.4	35.7
CC(C)(C)OC(=O)N(O)[C@@H]1C=C[C@H](n2cnc3c(N)ncnc32)C1	> 100	> 100	> 100	> 100	> 100	> 100	96.9	> 100	> 100	> 100	> 100	> 100	> 100	> 100	> 100	> 100	> 100	> 100
CCCCON1C[C@@H](O)C(O)[C@@H](O)C1 (stereo not given in full)	> 100	> 100	> 100	> 100	> 100	> 100	> 100	> 100	> 100	> 100	> 100	> 100	> 100	> 100	> 100	> 100	> 100	> 100
CC(C)/C(Cl)=N\OC(=O)Nc1cccc(F)c1	17.9	27.8	19.5	4.69	10.8	29.5	33.5	34.2	37	31.1	> 53.9	35.4	> 100	55.6	6.6	5.5	61.6	32.6
CN(NC(=O)c1ccco1)C1=NCCN1	> 100	> 100	> 100	> 100	> 100	> 100	> 100	> 100	> 100	> 100	> 100	> 100	> 100	> 100	> 100	> 100	> 100	> 100
CCc1n[nH]c(=S)n1/N=C\c1ccc(-c2ccccc2Cl)o1	> 100	> 100	66.6	> 100	> 100	54.1	41.6	82	53.7	61.7	> 100	61.9	> 100	> 100	53.5	> 100	87.5	> 100
COC1=C2CC(C)CC(OC)[C@@H](OC(=O)CCN)[C@H](C)/C=C(\C)C(OC(N)=O)C(OC)/C=C\C=C(/C)C(=O)NC(=CC1=O)C2=O (stereo not given in full)	31.2	16	16.9	2.05	19.5	12.7	40.6	6.22	34.5	15.5	30.1	14.9	20.4	35.1	8.71	1.48	1.68	16.3
COC(OC)C1OC(CO)C(n2cc(C)c(=O)[nH]c2=O)C1O (stereo not given)	> 100	> 100	> 100	> 100	> 100	> 100	> 100	> 100	> 100	> 100	> 100	> 100	> 100	> 100	> 100	> 100	> 100	> 100
C#CCOC(=O)c1ccccc1O	> 100	> 100	> 100	> 100	> 100	> 100	> 100	> 100	> 100	> 100	> 100	> 100	> 100	> 100	> 100	> 100	> 100	> 100
CC1(c2ccc(F)cc2)CC(c2ccc(F)cc2)=C(C#N)C(=C(C#N)C#N)N1 (stereo not given)	35.8	30.2	53	34.9	35.6	34.3	82.1	36.5	48.4	54	37.1	78.4	35.1	34.2	42.2	62.1	31.7	32
C=CCc1cc(-c2cc(CC=C)c(O)c(CN(CCCl)CCCl)c2)cc(CN(CCCl)CCCl)c1O	40.5	21.9	66.9	32.2	38.3	35	33.5	22.1	78.4	74.1	38.7	36.3	51.8	58.6	> 100	27.7	24.8	32.1
